Experimental data as given in EPA's ToxValDB 9.5 (doi:10.2903/j.efsa.2010.1389).
Converted amounts (≈) assume the structure as drawn.

Key:
Apis mellifera = details: acute; duration: 48 hours; dermal; mortality
Bibionidae = details: chronic/long-term; duration: 28 days; development
Daphnia magna = details: chronic/long-term; duration: 21 days; reproduction
Hypoaspis aculeifer = details: chronic/long-term; duration: 14 days
Lepomis macrochirus = details: acute; duration: 96 hours; mortality
Typhlodromus pyri = assay: LR50; higher = less toxic; details: acute; duration: 7 days; mortality

`CC(C)Oc1cc(-n2nc(C(C)(C)C)oc2=O)c(Cl)cc1Cl` [Oxadiazon] gave an NOEC (Anas platyrhynchos; reproductive) of 106 mg/kg-day, an LC50 (Anas platyrhynchos; short-term, oral, feed, mortality) of over 1140 mg/kg-day and an LD50 (Apis mellifera) of over 100 µg/piece. It also gave an NOEC (Bibionidae) of 5 mg/L, an LC50 (Colinus virginianus; acute, oral, diet, mortality) of over 730 mg/kg-day and an LD50 (Colinus virginianus; acute, oral, mortality) of over 2150 mg/kg-day. The NOEC (Colinus virginianus; reproduction developmental) was 90.8 mg/kg-day, the NOEC (Daphnia magna) was 0.03 mg/L and the NOEC (Hypoaspis aculeifer) was 339 mg/kg. It also gave an LC50 (Lepomis macrochirus) of 1.2 µg/mL (≈ 3.48 µM), an LC50 (Oncorhynchus mykiss; acute, duration: 96 hours, mortality) of 1.2 µg/mL (≈ 3.48 µM) and an NOEC (Oncorhynchus mykiss; chronic/long-term, duration: 60 days, other) of 0.00088 mg/L. The LD50 (Rattus norvegicus; acute, oral, mortality) was over 5000 mg/kg-day, the NOAEL (Rattus norvegicus; chronic) was 15 mg/kg-day and the NOAEL (Rattus norvegicus; chronic, duration: 2 years, organ weight) was 0.36 mg/kg-day. The NOAEL (Rattus norvegicus; developmental, development) was 12 mg/kg-day, the NOAEL (Rattus norvegicus; reproduction developmental, reproduction) was 5 mg/kg-day and the LC50 (Tagia sp.; acute, duration: 14 days, mortality) was over 1000 mg/kg. The NOEC (Tagia sp.; chronic/long-term, duration: 8 weeks, reproduction) was 133 mg/kg and the LR50 (Typhlodromus pyri) was 150 g/ha.
